Laboratory results reported in patent US7427623B2, “4-Amino-2,3-disubstituted thieno[2,3-d]pyrimidines and pharmacetical compositions thereof” (SmithKline Beecham Corporation, priority 2001, dated 2008).

How the values were obtained:
Recombinant GST-Tie2 = target: T1, Recombinant GST-Tie2 (Homo sapiens, UniProt Q02763); assay: Tie2 Fluorescence Polarization Kinase Activity Assay (TIE2-FP); type: biochemical; details: 200 μM ATP, activated Tie2, fluorescence polarization
T1 construct: GST
Procedure: Tie2 Fluorescence Polarization Kinase Activity Assay: (TIE2-FP)
Activation of Recombinant Tie2 Activation:
Recombinant GST-Tie2 was activated by incubating the enzyme in 20 mM Tris-HCl, pH 7.5, 12 mM MgCl2, 100 mM NaCl, 20 μM sodium vanidate, 1 mM DTT and 300 μM ATP at room temperature for 2 hours. […] The activated enzyme was stored as aliquots at −80° C. in 20 mM Tris-HCl, pH 7.5 and 11 mM NaCl.
The final assay conditions were 50 mM HEPES, pH 7.5, 5% DMSO (when screening compounds), 200 μM ATP, 5 mM MgCl2, 1 mM DTT, 50 μM sodium vanidate, 1 nM activated enzyme, and 200 μM peptide. […] Panvera Anti-phosphotyrosine antibody (Cat#P2840) and PTK Green Tracer (Cat#P2842) were used to detect the phosphorylated peptide. […] IC50's were then determined from the % polarization using normal calculation methods.

[1] = target: T2, GST-TIE2 (intracellular domains of human TIE2) (Homo sapiens, UniProt Q02763); assay: TIE-2 Enzyme assay (TIE2-E), LANCE method; type: biochemical; details: GST-TIE2, 80 uM ATP, D1–15 peptide
T2 construct: made in house
T2 sequence (Q02763 762-1104): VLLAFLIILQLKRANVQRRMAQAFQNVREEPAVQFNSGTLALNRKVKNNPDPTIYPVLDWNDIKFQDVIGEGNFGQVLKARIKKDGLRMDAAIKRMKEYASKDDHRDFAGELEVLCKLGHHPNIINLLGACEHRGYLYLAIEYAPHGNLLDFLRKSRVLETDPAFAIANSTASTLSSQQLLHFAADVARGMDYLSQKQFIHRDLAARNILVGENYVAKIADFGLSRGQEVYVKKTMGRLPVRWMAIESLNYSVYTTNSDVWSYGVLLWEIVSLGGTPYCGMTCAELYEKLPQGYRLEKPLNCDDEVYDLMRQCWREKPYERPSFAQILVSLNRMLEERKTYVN
Procedure: TIE-2 Enzyme assay (TIE2-E)
Preactivated GST-TIE2 was incubated for 30 mins at room temperature in 96 well plates with 1 uM D1–15 peptide, 80 uM ATP, 10 mM MgCl2, 0.1 mg/ml BSA and the test compound (diluted from a 10 mM stock in DMSO, final DMSO concentration was 2.4%) in 1 mM HEPES (pH 7.4). The reaction was stopped by the addition of EDTA (final concentration 45 mM). Streptavidin linked-APC (allophycocyanin, Molecular Probe) and Europium-labeled anti-phosphorylated tyrosine antibody (Wallac) were then added at the final concentration of 17 ug/well and 2.1 ug/well, respectively. The APC signal was measured using an ARVO multilabel counter. (Wallac Berthold Japan). The percent inhibition of activity was calculated relative to blank control wells. […] The IC50 values were converted to pIC50 values, i.e., −log IC50 in Molar concentration.

[2] = target: T3, TIE2 intracellular domain/c-fms extracellular domain (TIE2/c-fms) chimeric protein (Homo sapiens, UniProt Q02763); assay: TIE-2 Autophosphorylation Assay (TIE2-C), ELISA; type: cell-based; details: TIE2/c-fms expressing mouse 3T3 cells, MCSF activation
T3 construct: TIE2 intracellular domain/c-fms extracellular domain (TIE2/c-fms) chimeric protein; expressed in transfected cells; host or cells: mouse 3T3 cells
T3 sequence (Q02763 770-1124 limits assumed, change not shown): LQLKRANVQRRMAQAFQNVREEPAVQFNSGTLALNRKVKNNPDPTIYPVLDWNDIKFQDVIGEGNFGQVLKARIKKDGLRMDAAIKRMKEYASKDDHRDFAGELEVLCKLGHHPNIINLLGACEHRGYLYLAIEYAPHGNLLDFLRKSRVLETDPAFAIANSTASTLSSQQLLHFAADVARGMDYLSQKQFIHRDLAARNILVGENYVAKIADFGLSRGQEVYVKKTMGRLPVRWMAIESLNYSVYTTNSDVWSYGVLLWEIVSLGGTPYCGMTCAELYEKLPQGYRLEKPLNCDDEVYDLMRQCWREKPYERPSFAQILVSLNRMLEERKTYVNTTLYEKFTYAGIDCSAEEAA
T3 sequence (P07333 20-517 partner limits assumed): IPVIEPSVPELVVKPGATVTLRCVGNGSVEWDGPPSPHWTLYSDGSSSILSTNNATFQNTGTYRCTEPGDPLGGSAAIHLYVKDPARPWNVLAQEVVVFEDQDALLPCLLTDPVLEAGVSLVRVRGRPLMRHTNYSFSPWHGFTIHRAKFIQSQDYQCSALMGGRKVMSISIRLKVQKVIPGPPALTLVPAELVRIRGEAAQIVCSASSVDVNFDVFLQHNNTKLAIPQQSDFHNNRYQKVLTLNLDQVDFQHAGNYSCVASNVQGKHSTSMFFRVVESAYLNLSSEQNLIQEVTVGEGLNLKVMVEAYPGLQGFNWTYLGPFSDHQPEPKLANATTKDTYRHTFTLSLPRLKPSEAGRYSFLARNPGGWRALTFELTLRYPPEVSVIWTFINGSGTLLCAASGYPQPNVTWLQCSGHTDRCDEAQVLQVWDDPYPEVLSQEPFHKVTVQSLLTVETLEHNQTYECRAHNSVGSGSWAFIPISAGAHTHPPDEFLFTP
T3 sequence (P09603 33-190 partner limits assumed): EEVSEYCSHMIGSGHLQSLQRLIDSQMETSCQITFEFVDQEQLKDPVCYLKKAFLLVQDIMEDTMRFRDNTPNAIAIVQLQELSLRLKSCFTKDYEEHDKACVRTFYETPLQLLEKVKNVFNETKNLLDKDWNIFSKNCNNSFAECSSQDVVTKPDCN
Procedure: TIE-2 Autophosphorylation Assay (TIE2-C)
The TIE-2 autophosphorylation assay used an ELISA method and a TIE2 intracellular domain/c-fms extracellular domain (TIE2/c-fms) chimeric protein expressing mouse 3T3 cells. This assay measured the autophosphorylation level of TIE2 protein expressed in cells. The cells were cultured in high glucose DMEM (Sigma) containing 10% serum at 37° C. in a humidified 10% CO2, 90% air incubator. The test compound (diluted from a 10 mM stock in DMSO, final DMSO concentration was 0.1%) was incubated with TIE2/c-fms expressing cells for 1 hr in serum free DMEM in 96 well plates followed by the activation of TIE2/c-fms receptor using c-fms ligand, MCSF (macrophage colony stimulating factor). […] The cell extracts were transferred into Rat anti-c-fms antibody coated 96 well plates and incubated for 12 hrs at 4 degrees. The extracts were removed by aspiration and the plate was incubated with biotinylated anti-phosphotyrosine antibody, PT66 (Sigma) and then with HRP (Horseradish Peroxidase)-labeled streptavidin (PIERCE). The optical density at 450 nm derived from HRP catalyzed TMB was measured with an ARVO multilabel counter. (Wallac Berthold Japan). The percent inhibition of activity was calculated relative to blank control wells. […] The IC50 values were converted to pIC50 values, i.e., −log IC50 in Molar concentration.

GST-VEGFR2 = target: T4, GST-VEGFR2 (Homo sapiens, UniProt P35968); assay: VEGF-R2 Enzyme Assay (VEGF-E), LANCE method; type: biochemical; details: GST-VEGFR2, 75 uM ATP
T4 construct: GST-VEGFR2, baculovirus expressed recombinant constructs of the intracellular domains of human TIE2 tagged by GST; made in house
T4 sequence (P35968 786-1356 limits assumed): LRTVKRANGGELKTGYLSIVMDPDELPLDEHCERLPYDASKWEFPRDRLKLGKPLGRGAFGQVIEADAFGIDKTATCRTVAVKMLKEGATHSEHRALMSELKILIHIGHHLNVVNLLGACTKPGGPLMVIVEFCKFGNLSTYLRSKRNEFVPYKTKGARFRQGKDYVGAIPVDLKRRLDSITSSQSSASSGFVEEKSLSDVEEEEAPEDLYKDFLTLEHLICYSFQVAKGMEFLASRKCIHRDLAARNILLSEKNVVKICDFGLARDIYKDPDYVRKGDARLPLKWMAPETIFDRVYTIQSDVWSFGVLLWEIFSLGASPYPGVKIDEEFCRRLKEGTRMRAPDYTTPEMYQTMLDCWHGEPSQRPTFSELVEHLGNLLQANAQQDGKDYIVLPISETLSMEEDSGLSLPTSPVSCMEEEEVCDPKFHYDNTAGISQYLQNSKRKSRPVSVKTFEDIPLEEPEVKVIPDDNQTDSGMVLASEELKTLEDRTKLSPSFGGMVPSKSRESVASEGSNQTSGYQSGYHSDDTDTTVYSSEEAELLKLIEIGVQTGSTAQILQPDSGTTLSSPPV
Procedure: VEGF-R2 Enzyme Assay (VEGF-E)
The VEGF enzyme assay used the LANCE method (Wallac) and GST-VEGFR2, baculovirus expressed recombinant constructs of the intracellular domains of human […] tagged by GST. […] The reaction was stopped by the addition of EDTA (final concentration 50 mM). […] The APC signal was measured using an ARVO multilabel counter (Wallac Berthold, Japan). The percent inhibition of activity was calculated relative to blank control wells. […] The IC50 values were converted to pIC50 values, i.e., −log IC50 in Molar concentration.

[3] = tested on: Human umbilical cord endothelial cells (HUVEC); assay: VEGF-Driven Cellular Proliferation Assay, BrdU Incorporation Assay (VEGF-C); type: cell-based
Procedure: VEGF-Driven Cellular Proliferation Assay. BrdU Incorporation Assay (VEGF-C)
Human umbilical cord endothelial cells (HUVEC, Clonetics, CC2519) were passaged in Type I collagen-coated 100-mm petridishes in EGM-MV medium (Clonetics, CC3125) at 37 C in a humidified 5% CO2, 95% air incubator. […] After incubation overnight at 37° C., the media were replaced with 100 ul of M199 serum-free medium containing compounds at various concentrations with 0.6% DMSO and gentamicin. The compounds were diluted in serum-free M199 medium from 10 mM stock solutions prepared in 100% DMS0. […] The cells were pulsed with bromodeoxyuridine (BrdU at 10 uM in serum-free M199) at 37° C. for an additional 24 h. […] The optical density at 450 nm was measured with a multilabel counter (ARVO SX, Wallac). The percent inhibition of cell growth was calculated relative to blank control wells. […] The IC50 values were converted to pIC50 values, i.e., −log IC50 in Molar concentration.

T1 sequence (Q02763 23-1124): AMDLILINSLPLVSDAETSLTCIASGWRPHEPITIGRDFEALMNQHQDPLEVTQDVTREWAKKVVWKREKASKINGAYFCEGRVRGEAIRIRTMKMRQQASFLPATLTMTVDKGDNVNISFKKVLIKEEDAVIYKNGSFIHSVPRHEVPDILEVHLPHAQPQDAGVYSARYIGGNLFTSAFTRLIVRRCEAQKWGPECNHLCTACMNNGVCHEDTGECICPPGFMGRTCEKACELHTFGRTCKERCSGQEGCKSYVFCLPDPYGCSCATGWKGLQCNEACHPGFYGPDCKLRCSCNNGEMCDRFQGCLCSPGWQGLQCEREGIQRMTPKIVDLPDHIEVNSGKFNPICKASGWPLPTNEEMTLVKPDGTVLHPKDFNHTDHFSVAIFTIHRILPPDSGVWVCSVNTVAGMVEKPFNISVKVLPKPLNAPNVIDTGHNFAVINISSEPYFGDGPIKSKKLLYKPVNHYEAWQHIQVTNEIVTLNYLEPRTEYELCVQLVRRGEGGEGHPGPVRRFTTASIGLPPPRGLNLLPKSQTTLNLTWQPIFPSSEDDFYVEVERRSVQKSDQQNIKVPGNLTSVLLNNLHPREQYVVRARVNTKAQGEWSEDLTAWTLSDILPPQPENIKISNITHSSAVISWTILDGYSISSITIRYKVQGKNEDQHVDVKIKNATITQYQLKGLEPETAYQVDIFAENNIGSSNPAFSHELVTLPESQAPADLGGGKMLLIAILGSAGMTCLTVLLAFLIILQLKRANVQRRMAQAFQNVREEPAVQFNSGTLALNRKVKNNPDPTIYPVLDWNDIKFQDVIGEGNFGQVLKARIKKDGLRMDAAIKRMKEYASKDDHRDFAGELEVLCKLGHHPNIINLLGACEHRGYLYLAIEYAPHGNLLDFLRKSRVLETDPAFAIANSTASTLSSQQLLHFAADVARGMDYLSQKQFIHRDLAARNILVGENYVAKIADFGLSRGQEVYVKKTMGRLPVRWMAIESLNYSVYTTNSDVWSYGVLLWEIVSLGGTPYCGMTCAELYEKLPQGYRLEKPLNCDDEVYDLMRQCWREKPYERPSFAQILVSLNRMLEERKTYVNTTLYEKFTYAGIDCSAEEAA

Compound	IC50 (Recombinant GST-Tie2)	TIE2-E pIC50 [1]	TIE2-C pIC50 [2]	VEGF-E pIC50 (GST-VEGFR2)	VEGF-C pIC50 [3]
Nc1ncnc2scc(-c3ccc(NC(=O)Nc4cc(C(F)(F)F)ccc4F)cc3)c12 [Example 276, 4-Amino-3-(4-((2-fluoro-5-(trifluoromethyl)phenyl)aminocarbonylamino)phenyl)thieno[2,3-d]pyrimidine]	1.8 nM	–	–	–	–
4-Amino-3-(4-methoxyphenyl)-2-(3-sulfamoylphenyl)furo[2,3-d]pyrimidine [Example 165]	–	++ (++ = pIC50 of 6.0–7.0)	++ (++ = pIC50 of 6.0–7.0)	+++ (+++ = pIC50 of >7.0)	+ (+ = pIC50 of 5.0–6.0)
